Test results taken from the supplement of paper PMC8671470.

How the values were obtained:
Assay in all cases: cell viability (% survival relative to DMSO control); higher = less cytotoxic
Conditions in all cases: 72 h
MV4-11 = tested on: MV4-11
Description: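 8x8 drug-combination matrices (0–5000 nM; rosiglitazone and lestaurtinib 0–1000 nM) were run in MV4-11 cells for 72 h with CellTiter-Glo read-out. Survival is normalised to DMSO and 10 µM bortezomib and clipped at 100%.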

Mono-Mac-6 = tested on: Mono-Mac-6
Description: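 8x8 drug-combination matrices (0–5000 nM; rosiglitazone and lestaurtinib 0–1000 nM) were run in Mono-Mac-6 cells for 72 h with CellTiter-Glo read-out. Survival is normalised to DMSO and 10 µM bortezomib and clipped at 100%.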

HL-60 = tested on: HL-60
Description: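 8x8 drug-combination matrices (0-5000 nM; rosiglitazone and lestaurtinib 0-1000 nM) were run in HL-60 cells for 72 h with a CellTiter-Glo read-out. Survival is normalised to DMSO and 10 µM bortezomib and clipped at 100%. Bliss synergy was analysed in SynergyFinder.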

CN(C)C(=O)n1nnnc1Cc1ccc(-c2ccccc2)cc1 + CCOC(=O)N1c2ccc(C(F)(F)F)cc2[C@@H](N(Cc2cc(C(F)(F)F)cc(C(F)(F)F)c2)C(=O)OC)C[C@H]1CC [Torcetrapib]
cell viability [%]
Conditions | drug1 concentration 5 nM | drug1 concentration 10 nM | drug1 concentration 50 nM | drug1 concentration 100 nM | drug1 concentration 500 nM | drug1 concentration 1000 nM | drug1 concentration 5000 nM
HL-60, drug2 concentration 5 nM | 89.2 | > 100 | 64.3 | > 100 | 94.3 | > 100 | 8.91
HL-60, drug2 concentration 10 nM | > 100 | > 100 | > 100 | > 100 | > 100 | 90 | 15.4
HL-60, drug2 concentration 50 nM | 81.6 | > 100 | 86.8 | 80.8 | 79.3 | 87.4 | 6.94
HL-60, drug2 concentration 100 nM | 91.3 | > 100 | > 100 | 82.7 | > 100 | 80 | 14.4
HL-60, drug2 concentration 500 nM | > 100 | > 100 | > 100 | > 100 | > 100 | 85 | 6.21
HL-60, drug2 concentration 1000 nM | > 100 | > 100 | > 100 | > 100 | 98.3 | > 100 | 13
HL-60, drug2 concentration 5000 nM | > 100 | > 100 | > 100 | > 100 | > 100 | 78.8 | 0
MV4-11, drug2 concentration 5 nM | > 100 | 95 | > 100 | 89.1 | 76.8 | > 100 | 0.81
MV4-11, drug2 concentration 10 nM | 94.9 | 96 | > 100 | 85 | 74.3 | 79.8 | 3.27
MV4-11, drug2 concentration 50 nM | > 100 | > 100 | > 100 | 87.6 | 88.5 | 97.3 | 4.29
MV4-11, drug2 concentration 100 nM | > 100 | > 100 | > 100 | > 100 | > 100 | 77.1 | 1.95
MV4-11, drug2 concentration 500 nM | > 100 | > 100 | > 100 | 98 | > 100 | > 100 | 1.23
MV4-11, drug2 concentration 1000 nM | 98 | 99.8 | 85.5 | 93 | 99.7 | > 100 | 2.41
MV4-11, drug2 concentration 5000 nM | 98.2 | > 100 | > 100 | 98.2 | > 100 | 94.2 | 2.53
Mono-Mac-6, drug2 concentration 5 nM | > 100 | > 100 | > 100 | > 100 | 82.7 | 86.1 | -0.88
Mono-Mac-6, drug2 concentration 10 nM | 93 | 86.3 | > 100 | 92 | 69 | 90.7 | 0.43
Mono-Mac-6, drug2 concentration 50 nM | > 100 | 89.7 | 93.7 | 95.9 | > 100 | 58.1 | 1.57
Mono-Mac-6, drug2 concentration 100 nM | 89 | > 100 | > 100 | > 100 | > 100 | 96.6 | 0.14
Mono-Mac-6, drug2 concentration 500 nM | 91.9 | > 100 | > 100 | 97 | > 100 | > 100 | 0.52
Mono-Mac-6, drug2 concentration 1000 nM | 99.7 | 86.5 | 98.8 | > 100 | > 100 | > 100 | 2.08
Mono-Mac-6, drug2 concentration 5000 nM | 90.6 | 88.3 | > 100 | 93.4 | > 100 | 74.2 | 0

Oc1ncc(F)c(O)n1 [5-fluorouracil] + C[C@]12O[C@H](C[C@]1(O)CO)n1c3ccccc3c3c4c(c5c6ccccc6n2c5c31)CNC4=O [Lestaurtinib]
cell viability [%]
Conditions | drug1 concentration 5 nM | drug1 concentration 10 nM | drug1 concentration 50 nM | drug1 concentration 100 nM | drug1 concentration 500 nM | drug1 concentration 1000 nM | drug1 concentration 5000 nM
HL-60, drug2 concentration 1 nM | > 100 | > 100 | 53 | > 100 | 89.7 | 66.2 | 62.9
HL-60, drug2 concentration 5 nM | > 100 | 79.6 | > 100 | 71.6 | 91.6 | 64.7 | 80.9
HL-60, drug2 concentration 10 nM | 73.2 | 98.7 | > 100 | > 100 | 84.2 | 50.3 | 66.5
HL-60, drug2 concentration 50 nM | 72 | 85.6 | 56.1 | 67.8 | 53.5 | 77.1 | 43
HL-60, drug2 concentration 100 nM | 60.5 | 67.5 | 68.8 | 63.6 | 74.3 | 51.8 | 32.6
HL-60, drug2 concentration 500 nM | 32.8 | 32.6 | 48.9 | 41.5 | 35.7 | 33.5 | 26.1
HL-60, drug2 concentration 1000 nM | 8.89 | 19.8 | 19.4 | 20.8 | 52.9 | 25.7 | 0
MV4-11, drug2 concentration 1 nM | 88.4 | > 100 | > 100 | 88.1 | 69.4 | 68.5 | 12.8
MV4-11, drug2 concentration 5 nM | 70.5 | 43 | 50.6 | 46 | 55.2 | 41.9 | 21.9
MV4-11, drug2 concentration 10 nM | 26.4 | 23.6 | 28.6 | 42.1 | 19 | 25.7 | 13.7
MV4-11, drug2 concentration 50 nM | 2.49 | 4.72 | 2.14 | 3.46 | 4.09 | 5.74 | 1.61
MV4-11, drug2 concentration 100 nM | 3.32 | 0.99 | 1.1 | 1.76 | 0.68 | 3.09 | -0.36
MV4-11, drug2 concentration 500 nM | 0.17 | -0.1 | 1.37 | 1.89 | 0.91 | 0.05 | 0.08
MV4-11, drug2 concentration 1000 nM | -1.49 | -0.48 | 0.53 | 3.29 | 2.21 | 1.49 | 0.17
Mono-Mac-6, drug2 concentration 1 nM | > 100 | > 100 | > 100 | 98 | 81.7 | 66.8 | 43.8
Mono-Mac-6, drug2 concentration 5 nM | > 100 | 62.4 | 76.5 | 65.3 | 69.7 | 54.7 | 48
Mono-Mac-6, drug2 concentration 10 nM | 58.5 | 59.6 | 61.9 | 68 | 42.9 | 54.4 | 50.9
Mono-Mac-6, drug2 concentration 50 nM | 20.5 | 20.9 | 19 | 21.8 | 19.7 | 19.4 | 21.1
Mono-Mac-6, drug2 concentration 100 nM | 15.4 | 11.6 | 14.2 | 12.9 | 8.95 | 10.9 | 7.36
Mono-Mac-6, drug2 concentration 500 nM | 1.8 | 1.6 | 3.44 | 3.7 | 1.89 | 2.85 | 1.13
Mono-Mac-6, drug2 concentration 1000 nM | -0.9 | 1.2 | 0.62 | 2.92 | 5.56 | 0.83 | 0

CN(C)CCNC(=O)c1cccn2c(=O)c3cc4ccccc4cc3nc12 [Bmh-21] + O=C(O)CC[N+](=O)[O-] [3-nitropropionic acid]
cell viability [%]
Conditions | drug1 concentration 5 nM | drug1 concentration 10 nM | drug1 concentration 50 nM | drug1 concentration 100 nM | drug1 concentration 500 nM | drug1 concentration 1000 nM | drug1 concentration 5000 nM
HL-60, drug2 concentration 5 nM | 76.1 | > 100 | > 100 | > 100 | 34.7 | 29.4 | 11.4
HL-60, drug2 concentration 10 nM | 85.5 | > 100 | > 100 | 89.3 | 54.7 | 48.5 | 34
HL-60, drug2 concentration 50 nM | 90.2 | 83.1 | > 100 | > 100 | 57 | 52.6 | 7.17
HL-60, drug2 concentration 100 nM | > 100 | > 100 | > 100 | > 100 | 45.9 | 28.8 | 4.7
HL-60, drug2 concentration 500 nM | > 100 | > 100 | 81.7 | > 100 | 53.9 | 70 | 13.8
HL-60, drug2 concentration 1000 nM | > 100 | 62.9 | > 100 | > 100 | 77.4 | 1.67 | 50.4
HL-60, drug2 concentration 5000 nM | > 100 | > 100 | 68.7 | > 100 | 22 | 24.2 | 0
MV4-11, drug2 concentration 5 nM | 92.2 | > 100 | 96.9 | 80.6 | 72.2 | 88.4 | 29.9
MV4-11, drug2 concentration 10 nM | > 100 | > 100 | > 100 | > 100 | 39.5 | 77.4 | 34.1
MV4-11, drug2 concentration 50 nM | 91.9 | 88.3 | 90.3 | > 100 | 73.8 | 78.7 | 57.4
MV4-11, drug2 concentration 100 nM | 81.9 | > 100 | > 100 | 93.2 | 77.6 | 84.5 | 91.6
MV4-11, drug2 concentration 500 nM | > 100 | 99.8 | 96.2 | 95.9 | > 100 | 96.8 | 11.1
MV4-11, drug2 concentration 1000 nM | 90.9 | 89.5 | > 100 | 98.2 | > 100 | 57.3 | 68.4
MV4-11, drug2 concentration 5000 nM | > 100 | 77.9 | 66.9 | > 100 | 62.8 | 59.4 | 43.1
Mono-Mac-6, drug2 concentration 5 nM | 76.5 | > 100 | > 100 | 83.1 | 56.5 | 60.2 | 63.5
Mono-Mac-6, drug2 concentration 10 nM | > 100 | > 100 | > 100 | > 100 | 70.1 | 83.3 | 45.7
Mono-Mac-6, drug2 concentration 50 nM | > 100 | 91.1 | 87 | > 100 | 63.6 | 67.4 | 49.9
Mono-Mac-6, drug2 concentration 100 nM | 98.2 | > 100 | > 100 | 79.8 | 73.9 | 74.2 | > 100
Mono-Mac-6, drug2 concentration 500 nM | 90.6 | > 100 | 91.9 | > 100 | > 100 | 72.2 | 44.8
Mono-Mac-6, drug2 concentration 1000 nM | 96.3 | 97 | 88.2 | 90.7 | > 100 | 83.4 | 83.5
Mono-Mac-6, drug2 concentration 5000 nM | > 100 | 76.8 | > 100 | > 100 | 67.5 | 61 | 69.3
